For 29 compounds, melting point results are on record in patent publication US6489315B1, “Cyclic compounds, their production and use” (Takeda Chemical Industries, Ltd., priority 1995, dated 2002).

For the compound `CC1CCn2c(c(-c3ccccc3)c3cccnc3c2=O)C(=O)N(Cc2cc(C(F)(F)F)cc(C(F)(F)F)c2)C1` (racemic) [Example 15, (+/−)-7-[3,5-Bis(trifluoromethyl)benzyl]-6,7,8,9,10,11-hexahydro-9-methyl-6,13-dioxo-5-phenyl-13H-[1,4]diazocino[2,1-g][1,7]naphthyridine], the melting point is 257 to 258 °C.
Turning to `Cc1ccc(-c2c3n(c(=O)c4ncccc24)CCC(C)CN(Cc2cc(C(F)(F)F)cc(C(F)(F)F)c2)C3=O)cc1` (racemic) [Example 16, (+/−)-7-[3,5-Bis(trifluoromethyl)benzyl]-6,7,8,9,10,11-hexahydro-9-methyl-5-(4-methylphenyl)-6,13-dioxo-13H-[1,4]diazocino[2,1-g][1,7]naphthyridine], the melting point lay in the range of 280 to 281 °C.
Next, `Cc1ccc(-c2c3n(c(=O)c4ncccc24)CC(O)CN(Cc2cc(C(F)(F)F)cc(C(F)(F)F)c2)C3=O)cc1` (racemic) [Example 25, (+/−)-7-[3,5-Bis(trifluoromethyl)benzyl]-6,7,8,9,10,12-hexahydro-9-hydroxy-5-(4-methylphenyl)-6,12-dioxo[1,4]diazepino [2,1-g][1,7]naphthyridine]: 282 to 283 °C.
Under `Cc1ccc(-c2c3n(c(=O)c4ncccc24)CCN(Cc2cc(C(F)(F)F)cc(C(F)(F)F)c2)C3=O)cc1` [Example 1, 7-[3,5-Bis(trifluoromethyl)benzyl]-6,7,8,9-tetrahydro-5-(4-methylphenyl)-6,11-dioxo-11H-pyrazino[2,1-g][1,7]naphthyridine] stands 270 to 271 °C.
Compound `Cc1ccc(-c2c3n(c(=O)c4ncccc24)CCCN(Cc2cc(C(F)(F)F)cc(C(F)(F)F)c2)C3=O)cc1` [Example 2, 7-[3,5-Bis(trifluoromethyl)benzyl]-6,7,8,9,10,12-hexahydro-5-(4-methylphenyl)-6,12-dioxo[1,4]diazepino[2,1-g][1,7]naphthyridine] had a melting point of 194 to 195 °C.
Next, `O=C1c2c(-c3ccccc3)ccnc2OCCN1Cc1cc(C(F)(F)F)cc(C(F)(F)F)c1` [Example 11, 4-[3,5-Bis(trifluoromethyl)benzyl]-2,3,4,5-tetrahydro-5-oxo-6-phenylpyrido[3,2-f][1,4]oxazepine]: 200 to 201 °C.
Under `Cc1ccc(-c2c3n(c(=O)c4ncccc24)C[C@H](C)CN(Cc2cc(C(F)(F)F)cc(C(F)(F)F)c2)C3=O)cc1` [Example 12, (9R)-7-[3,5-Bis(trifluoromethyl)benzyl]-6,7,8,9,10,12-hexahydro-9-methyl-5-(4-methylphenyl)-6,12-dioxo[1,4]diazepino[2,1-g][1,7]naphthyridine] stands 179 to 180 °C; under `C[C@H]1CN(Cc2cc(C(F)(F)F)cc(C(F)(F)F)c2)C(=O)c2c(-c3ccccc3)c3cccnc3c(=O)n2C1` [Example 13, (9S)-7-[3,5-Bis(trifluoromethyl)benzyl]-6,7,8,9,10,12-hexahydro-9-methyl-6,12-dioxo-5-phenyl[1,4]diazepino[2,1-g][1,7]naphthyridine], 150 to 152 °C; under `Cc1ccc(-c2c3n(c(=O)c4ncccc24)C[C@@H](C)CN(Cc2cc(C(F)(F)F)cc(C(F)(F)F)c2)C3=O)cc1` [Example 14, (9S)-7-(3,5-Bis(trifluoromethyl)benzyl]-6,7,8,9,10,12-hexahydro-9-methyl-5-(4-methylphenyl)-6,12-dioxo[1,4]diazepino[2,1-g][1,7]naphthyridine], 179 to 180 °C.
Under `C[C@@H]1CCn2c(c(-c3ccccc3)c3cccnc3c2=O)C(=O)N(Cc2cc(C(F)(F)F)cc(C(F)(F)F)c2)C1` [Example 17, (9R)-7-[3,5-Bis(trifluoromethyl)benzyl]-6,7,8,9,10,11-hexahydro-9-methyl-6,13-dioxo-5-phenyl-13H-[1,4]diazocino[2,1-g][1,7]naphthyridine] stands 245 to 247 °C.
In turn, `Cc1ccc(-c2c3n(c(=O)c4ncccc24)CC[C@@H](C)CN(Cc2cc(C(F)(F)F)cc(C(F)(F)F)c2)C3=O)cc1` [Example 18, (9R)-7-[3,5-Bis(trifluoromethyl)benzyl]-6,7,8,9,10,11-hexahydro-9-methyl-5-(4-methylphenyl)-6,13-dioxo-13H-[1,4]diazocino[2,1-g][1,7]naphthyridine] had a melting point of 226 to 228 °C.
Next, `C[C@H]1CCn2c(c(-c3ccccc3)c3cccnc3c2=O)C(=O)N(Cc2cc(C(F)(F)F)cc(C(F)(F)F)c2)C1` [Example 19, (9S)-7-[3,5-Bis(trifluoromethyl)benzyl]-6,7,8,9,10,11-hexahydro-9-methyl-6,13-dioxo-5-phenyl-13H-[1,4]diazocino[2,1-g][1,7]naphthyridine]: 242 to 244 °C; `Cc1ccc(-c2c3n(c(=O)c4ncccc24)CC[C@H](C)CN(Cc2cc(C(F)(F)F)cc(C(F)(F)F)c2)C3=O)cc1` [Example 20, (9S)-7-[3,5-Bis(trifluoromethyl)benzyl]-6,7,8,9,10,11-hexahydro-9-methyl-5-(4-methylphenyl)-6,13-dioxo-13H-[1,4]diazocino[2,1-g][1,7]naphthyridine]: 227 to 228 °C.
Next, `O=C1c2c(-c3ccccc3)ccnc2NCCN1Cc1cc(C(F)(F)F)cc(C(F)(F)F)c1` [Example 21, 4-[3,5-Bis(trifluoromethyl)benzyl]-2,3,4,5-tetrahydro-5-oxo-6-phenyl-1H-pyrido[2,3-e][1,4]diazepine]: 242 to 243 °C.
As for `O=C1c2c(-c3ccccc3)ccnc2OCCCN1Cc1cc(C(F)(F)F)cc(C(F)(F)F)c1` [Example 22, 5-[3,5-Bis(trifluoromethyl)benzyl]-2,3,4,5-tetrahydro-6-oxo-7-phenyl-6H-pyrido(2,3-b)[1,5]oxazocine], the melting point was in the range of 188 to 189 °C.
Under `Cc1cnc2c(c1-c1ccccc1)C(=O)N(Cc1cc(C(F)(F)F)cc(C(F)(F)F)c1)C[C@@H](C)CO2` [Example 32, (R)-5-[3,5-Bis(trifluoromethyl)benzyl]-2,3,4,5-tetrahydro-3,8-dimethyl-6-oxo-7-phenyl-6H-pyrido[2,3-b][1,5]oxazocine] stands 147 to 149 °C.
Under `Cc1cc(-c2ccccc2)c2c(n1)OCCN(Cc1cc(C(F)(F)F)cc(C(F)(F)F)c1)C2=O` [Example 33, 4-[3,5-Bis(trifluoromethyl)benzyl)-2,3,4,5-tetrahydro-8-methyl-5-oxo-6-phenylpyrido[3,2-f][1,4]oxazepine] stands 151 to 153 °C.
In the case of `Cc1cc(-c2ccccc2)c2c(n1)OCCCN(Cc1cc(C(F)(F)F)cc(C(F)(F)F)c1)C2=O` [Example 34, 5-[3,5-Bis(trifluoromethyl)benzyl]-2,3,4,5-tetrahydro-9-methyl-6-oxo-7-phenyl-6H-pyrido[2,3-b][1,5]oxazocine], the melting point is 164 to 165 °C.
`Cc1cc(-c2ccccc2)c2c([n+]1[O-])OCCN(Cc1cc(C(F)(F)F)cc(C(F)(F)F)c1)C2=O` [Example 35] returned a melting point of 181 to 183 °C.
Under `CC(=O)OCc1cc(-c2ccccc2)c2c(n1)OCCN(Cc1cc(C(F)(F)F)cc(C(F)(F)F)c1)C2=O` [Example 37, 8-Acetoxymethyl-4-[3,5-bis(trifluoromethyl)benzyl]-2,3,4,5-tetrahydro-5-oxo-6-phenylpyrido(3,2-f][1,4]oxazepine] stands 122 to 124 °C.
`CC(=O)OCc1cc(-c2ccccc2)c2c(n1)OCCCN(Cc1cc(C(F)(F)F)cc(C(F)(F)F)c1)C2=O` [Example 38, 9-Acetoxymethyl-5-[3,5-bis(trifluoromethyl)benzyl]-2.3,4,5-tetrahydro-6-oxo-7-phenyl-6H-pyrido[2,3-b][1,5]oxazocine] showed a melting point of 156 to 157 °C.
Next, `O=C1c2c(-c3ccccc3)cc(CCl)nc2OCCN1Cc1cc(C(F)(F)F)cc(C(F)(F)F)c1` [Example 39, 4-[3,5-Bis(trifluoromethyl)benzyl]-8-chloromethyl-2,3,4,5-tetrahydro-5-oxo-6-phenylpyrido[3,2-f][1,4]oxazepine]: 183 to 184 °C; `COCc1cc(-c2ccccc2)c2c(n1)OCCN(Cc1cc(C(F)(F)F)cc(C(F)(F)F)c1)C2=O` [Example 40, 4-[3,5-Bis(trifluoromethyl)benzyl]-2,3,4,5-tetrahydro-8-methoxymethyl-5-oxo-6-phenylpyrido[3,2-f][1,4]oxazepine]: 139 to 140 °C; `CSCc1cc(-c2ccccc2)c2c(n1)OCCN(Cc1cc(C(F)(F)F)cc(C(F)(F)F)c1)C2=O` [Example 42, 4-[3,5-Bis(trifluoromethyl)benzyl]-2,3,4,5-tetrahydro-8-methylthiomethyl-5-oxo-6-phenylpyrido[3,2-f][1,4]oxazepine]: 165 to 166 °C.
Under `NCc1cc(-c2ccccc2)c2c(n1)OCCN(Cc1cc(C(F)(F)F)cc(C(F)(F)F)c1)C2=O` [Example 43, 8-Aminomethyl-4-[3,5-bis(trifluoromethyl)benzyl]-2,3,4,5-tetrahydro-5-oxo-6-phenylpyrido[3,2-f][1,4]oxazepine] stands 188 to 191 °C; under `CNCc1cc(-c2ccccc2)c2c(n1)OCCN(Cc1cc(C(F)(F)F)cc(C(F)(F)F)c1)C2=O` [Example 44, 4-[3,5-Bis(trifluoromethyl)benzyl]-2,3,4,5-tetrahydro-8-methylaminomethyl-5-oxo-6-phenylpyrido[3,2-f][1,4]oxazepine], 152 to 154 °C; under `CN(C)Cc1cc(-c2ccccc2)c2c(n1)OCCN(Cc1cc(C(F)(F)F)cc(C(F)(F)F)c1)C2=O` [Example 45, 4-[3,5-Bis(trifluoromethyl)benzyl]-8-dimethylaminomethyl-2,3,4,5-tetrahydro-5-oxo-6-phenylpyrido[3,2-f][1,4]oxazepine], 186 to 188 °C.
Next, `O=C1c2c(-c3ccccc3)cc(CNC3CC3)nc2OCCN1Cc1cc(C(F)(F)F)cc(C(F)(F)F)c1` [Example 46, 4-[3,5-Bis(trifluoromethyl)benzyl]-8-cyclopropylaminomethyl-2,3,4,5-tetrahydro-5-oxo-6-phenylpyrido[3,2-f][1,4]oxazepine]: 129 to 131 °C.
`CC(=O)NCc1cc(-c2ccccc2)c2c(n1)OCCN(Cc1cc(C(F)(F)F)cc(C(F)(F)F)c1)C2=O` [Example 48, 8-Acetylaminomethyl-4-[3,5-bis(trifluoromethyl)benzyl]-2,3,4,5-tetrahydro-5-oxo-6-phenylpyrido[3,2-f][1,4]oxazepine] gave a melting point of 223 to 224 °C.
